Laboratory results reported in patent US6800645B1, “Substituted azabicyclic compounds” (Aventis Pharma Limited, priority 1996, dated 2004).

| melting point | SMILES |
| --- | --- |
| 218 to 220 °C (dec.) | COCc1nc2c(OC)ccc(C(=O)Cc3ccncc3)c2[nH]1 [Example 4, 1-(7-Methoxy-2-methoxymethyl-3H-benzimidazol-4-yl)-2-(4-pyridyl)ethanone] |
| 210 °C (dec.) | COCc1nc2c(OC)ccc(C(O)(Cc3ccncc3)Cc3ccncc3)c2[nH]1 [Example 5, 1,3-bis-(4-pyridyl)-2-(7-methoxy-2-methoxymethyl-3H-benzimidazol-4-yl)-propan-2-ol] |
| 245 °C | Cc1ccc(S(=O)(=O)n2cc(C=O)c3ccc(C(=O)Nc4c(Cl)cncc4Cl)cc32)cc1 [Example 17, N-(3,5-Dichloro-pyridin-4-yl)-3-formyl-1-(toluene-4-sulphonyl)-1H-indole-6-carboxamide] |
| 146 to 147 °C | COc1ccc(Cn2cc(C)c3ccc(C(=O)c4ccccc4)cc32)cc1 [Example 24, [1-(4-Methoxy-benzyl)-3-methyl-1H-indol-6-yl]-phenyl methanone] |
